The results in this text go back to EP0474374A1, “Method for treatment of bone wasting diseases using a progestin” (ORTHO PHARMACEUTICAL CORPORATION, priority 1990, dated 1992).

Molecules are shown by their SMILES. pIC50: −log10 of the molar value.

Assay [1] has as its system MC3T3-El osteoblast-line cells. Put plainly: Osteoblast cell proliferation (3H-thymidine incorporation into DNA). Format: cell-based, mouse.
Procedure: Only cells undergoing mitosis will synthesize new DNA and thus only these cells will incorporate the radiolabelled DNA specific nucleotide, thymidine. […] The ability of agents to increase osteoblast proliferation and differentiation can be predicted by their action on cultured osteoblast-line cells in vitro. In this test mouse (MC3T3-El), and human (TE-85) osteoblast-line cells were cultured in vitro and the effect of various progestins was tested on osteoblast cell proliferation. Osteoblast cell proliferation was determined by measuring the rate of DNA synthesis, which was quantified by measuring the rate of ³H-thymidine incorporation into DNA.
Following their placement into 96 well culture plates all the osteoblast-line cells, either the MC3T3-El or the TE-85 cell lines, were allowed an additional 24 hours preincubation period in media containing only 0.1% fetal bovine sera. The next day the test compounds were added and screened at concentrations ranging from 10⁻¹⁴ to 10⁻⁶ M depending on the particular study. Twenty hours later a 20 ul aliquot of media containing 0.4 uCi of ³H-thymidine was added to each culture well. The cells were then incubated for an additional 4 hours. The incubation was terminated by aspirating the media and washing with HBSS (Hank's Balanced Salt Solution). The cells were then treated with 100 ul of Trypsin-EDTA (Ethylene Diamine Tetra Acetic Acid) (0.5% trypsin and 5.3 mM EDTA) for 30 minutes at room temperature. The cells were then aspirated onto a glass fiber filter and washed with water. The radioactivity on the filters was quantified by liquid scintillation spectroscopy. The rate of ³H-thymidine incorporation into DNA is then utilized as an index of cell proliferation.
Mouse (MC3T3-El) osteoblast-line cells were cultured in vitro and the effect of various progestins on the ability of the cells to incorporate 3H-thymidine was determined. Osteoblast cell proliferation is determined by measuring the rate of DNA synthesis which was quantified by measuring the rate of ³H-thymidine incorporation into DNA. MC-3T3-El osteoblast-line cells were harvested from large culture flasks where they were allowed to grow to near confluency using Trypsin.
Assay [2] addresses T1, rat prostate androgen cytosolic receptors (Rattus norvegicus, UniProt P15207).
T1 construct: the supernatant was used as the cytosolic androgen receptor preparation; from tissue; host or cells: ventral prostate glands of castrated male rats (250-300 g); 105,000 g cytosol supernatant
T1 sequence (P15207 1-902): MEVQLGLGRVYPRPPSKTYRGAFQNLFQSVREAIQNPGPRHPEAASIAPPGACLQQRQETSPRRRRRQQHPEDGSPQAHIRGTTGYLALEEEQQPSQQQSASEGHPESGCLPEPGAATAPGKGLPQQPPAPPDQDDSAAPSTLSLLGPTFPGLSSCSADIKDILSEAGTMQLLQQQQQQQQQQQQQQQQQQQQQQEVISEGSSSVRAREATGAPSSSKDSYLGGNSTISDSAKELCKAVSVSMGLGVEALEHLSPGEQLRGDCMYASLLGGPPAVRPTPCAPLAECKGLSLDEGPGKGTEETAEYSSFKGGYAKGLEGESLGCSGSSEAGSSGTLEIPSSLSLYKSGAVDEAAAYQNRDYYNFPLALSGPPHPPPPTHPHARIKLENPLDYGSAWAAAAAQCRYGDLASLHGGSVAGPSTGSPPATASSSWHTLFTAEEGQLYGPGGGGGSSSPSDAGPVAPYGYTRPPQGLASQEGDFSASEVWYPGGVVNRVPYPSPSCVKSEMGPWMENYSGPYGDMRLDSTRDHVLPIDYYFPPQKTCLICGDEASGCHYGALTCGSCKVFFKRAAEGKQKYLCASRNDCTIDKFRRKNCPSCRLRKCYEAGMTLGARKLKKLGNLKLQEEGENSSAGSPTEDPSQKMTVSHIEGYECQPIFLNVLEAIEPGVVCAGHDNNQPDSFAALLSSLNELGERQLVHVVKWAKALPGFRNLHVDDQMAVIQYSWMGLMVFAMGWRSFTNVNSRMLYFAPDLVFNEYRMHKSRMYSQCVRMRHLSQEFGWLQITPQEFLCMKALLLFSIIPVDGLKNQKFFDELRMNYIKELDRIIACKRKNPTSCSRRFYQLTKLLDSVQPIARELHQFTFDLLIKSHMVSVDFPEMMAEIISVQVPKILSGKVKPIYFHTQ
In words: Androgen receptor binding (competitive 3H-DHT displacement). Conditions: 1 nM 3H-DHT, 24 hours at 4°C; mean + 1 S.E. of 4 determinations in duplicate.
Procedure: The relative binding affinity of other steroids, such as progestins, for androgen receptors can be determined by evaluating their ability to displace ³H-DHT from these rat ventral prostate receptors in vitro. Cytosolic androgen receptors were prepared from ventral prostate glands isolated from castrated male rats (250-300 g). Ventral prostate glands were homogenized and centrifuged at 105,000 g for 60 min at 4°C and the supernatant was used as the cytosolic androgen receptor preparation. […] The relative degree of receptor binding of the test progestin was expressed as percent inhibition of total ³H-DHT binding.
The relative binding affinity of other steroids, such as progestins, for androgen receptors is determined by evaluating their ability to displace ³H-DHT from these rat ventral prostate receptors in vitro. Cytosolic androgen receptors were prepared from ventral prostate glands isolated from castrate male rats (250-300 g). Ventral prostate glands were homogenized and centrifuged at 105,000 g for 60 min at 4°C and the supernatant used as the cytosolic androgen receptor preparation. […] The relative degree of receptor binding of the test progestin was expressed as percent inhibition of total ³H-DHT binding.
Relative androgen receptor binding activity was analyzed in competitive binding assays utilizing 3H-DHT binding for rat prostate androgen cytosolic receptors.

As to `C#C[C@]1(O)C=C[C@H]2[C@@H]3CCC4=CC(=O)CC[C@@H]4[C@H]3CC[C@@]21CC` [GESTODENE], the “OSTEOBLAST STIMULATION” value in assay [1] (ability to stimulate 3H-thymidine incorporation in MC3T3-El osteoblast-line cells, stimulation over control) is “NOT ACTIVE”. Also, the “osteoblast proliferation and differentiation” value in assay [1] (summary statement in words, bone forming cells, cell line not named) is listed as “do not stimulate”. In addition, the pIC50 in assay [2] was 7.89.
